Here are results for three compounds from US6875788B2, “Imidazoline compounds” (Les Laboratoires Servier, priority 2002, dated 2005).

One test concerns the target T1, serotonin reuptake sites (Rattus norvegicus, UniProt P31652).
T1 construct: The membranes from the rat frontal cortex are prepared and incubated in triplicate; from tissue; host or cells: rat frontal cortex membranes
Briefly: Affinity for serotonin reuptake sites, competition with [3H]-paroxetine on rat frontal cortex membranes. It counts as binding. The conditions noted are these: 0.25 nM [3H]-paroxetine, 2 hours, 25° C. The protocol: The affinity of the compounds of the invention was determined by competition experiments with [^3H]-paroxetine. The membranes from the rat frontal cortex are prepared and incubated in triplicate for 2 hours, at 25° C., with 0.25 nM [^3H]-paroxetine and the cold ligand in a final volume of 0.4 ml. The incubation buffer contains 50 mM TRIS-HCl (pH 7.4), 120 mM NaCl and 5 mM KCl. The non-specific binding is determined using 10 μM citalopram. At the end of incubation, the medium is filtered through filters and washed three times with 5 ml of cooled buffer. The radioactivity retained on the filters is determined by liquid scintillation counting. The binding isotherms are analysed by non-linear regression in order to determine the IC50 values.

The next test relates to non-diabetic Wistar rats. The experiment in a line: Oral glucose tolerance test (OGTT), hypoglycaemic activity in non-diabetic Wistar rats. It counts as in vivo, rat. The conditions noted are these: 10 mg/kg per os 1 hour before OGTT (glucose 2 g/kg per os).
The test system of another test is STZ Wistar rats. The experiment in a line: Oral glucose tolerance test (OGTT), hypoglycaemic activity in STZ (streptozotocin) Wistar rats. Format: in vivo, rat. The conditions noted are these: 10 mg/kg per os 1 hour before OGTT (glucose 2 g/kg per os). The protocol:
The hypoglycaemic activity of the compounds of the invention was examined in three-month-old male Wistar rats weighing about 250 g. An experimental diabetes is obtained by the iv injection, under ketamine hydrochloride anaesthesia, of a low dose of streptozotocin (35 mg/kg iv) dissolved in a citrate buffer. Such rats are called STZ rats and are characterised by a slight basal hyperglycaemia, a marked intolerance to glucose and a clear change in the secretion of insulin.
Homeostasis was evaluated by a glucose tolerance test, carried out two weeks after injection with streptozotocin.
(§1) Oral Glucose Tolerance Test (OGTT)
(§2) Glucose is administered per os (2 g/kg) to conscious rats. Blood samples are collected before and 10, 20, 30, 40, 60, 90 and 120 minutes after the glucose administration.
(§3) The product to be tested is administered per os 1 hour before the OGTT, and the control animals receive solvent (gum arabic).

The subject of a further test is obese ob/ob mouse. The experiment in a line: Hypolipaemic activity in the obese ob/ob mouse. It counts as in vivo. Conditions: oral route 30 mg/kg/day for 4 days, treated vs. untreated animals. The protocol: The products of the invention were tested in vivo in the obese ob/ob mouse, used as a model of obesity-associated insulin resistance. […] In this model, the compounds of the invention are thus shown also to be powerful hypolipaemics.

The test system of another test is Zucker rats. Briefly: Oral glucose tolerance test (OGTT), hypoglycaemic activity in Zucker fatty fa/fa rats. Format: in vivo, rat. Conditions: 10 mg/kg per os 1 hour before OGTT (glucose 2 g/kg per os). As for the experimental part:
Finally, the hypoglycaemic activity was evaluated in “Zucker” rats. “Zucker fatty” fa/fa rats arose following a spontaneous mutation of the 13M strain (Zucker & Zucker, 1961), and are genetically insulin-resistant and obese.
Their obesity can be observed from the age of four weeks, and is thus accompanied by insulin resistance, hyperinsulinaemia and hyperlipidaemia. […] Homeostasis was evaluated likewise by a glucose tolerance test.
as §1, §2, §3

The term IC50 denotes the concentration that gives 50% inhibition. The low end stands for higher potency, the high end for lower potency.

T1 sequence (P31652 whole entry): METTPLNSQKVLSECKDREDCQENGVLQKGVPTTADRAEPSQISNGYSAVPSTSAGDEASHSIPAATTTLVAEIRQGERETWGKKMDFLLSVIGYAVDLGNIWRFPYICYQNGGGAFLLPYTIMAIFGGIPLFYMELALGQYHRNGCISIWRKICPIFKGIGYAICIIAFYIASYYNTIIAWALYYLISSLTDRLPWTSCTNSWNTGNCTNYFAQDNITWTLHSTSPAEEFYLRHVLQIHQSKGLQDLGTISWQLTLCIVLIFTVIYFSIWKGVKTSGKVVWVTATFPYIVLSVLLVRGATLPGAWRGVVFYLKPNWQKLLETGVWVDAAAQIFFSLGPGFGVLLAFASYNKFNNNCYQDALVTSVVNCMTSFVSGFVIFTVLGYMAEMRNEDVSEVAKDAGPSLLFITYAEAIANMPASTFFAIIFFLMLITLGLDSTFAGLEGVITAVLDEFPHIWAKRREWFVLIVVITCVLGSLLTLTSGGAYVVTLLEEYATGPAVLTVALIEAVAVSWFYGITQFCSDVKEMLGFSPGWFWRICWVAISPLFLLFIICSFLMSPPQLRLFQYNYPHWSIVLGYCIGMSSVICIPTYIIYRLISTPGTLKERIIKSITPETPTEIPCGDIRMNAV

For the compound `c1ccc(C(C2=NCCN2)C2CCCCC2)cc1` (stereo not drawn) [2-[cyclohexyl(phenyl)methyl]-4,5-dihydro-1H-imidazole, reference compound], the IC50 on serotonin reuptake sites stood at 150 nM.
Still for that read-out and setting: to `c1cc(C(C2=NCCN2)C2CCCCC2)cs1` (stereo not drawn) [Example 3, 2-[Cyclohexyl(3-thienyl)methyl]-4,5-dihydro-1H-imidazole] belongs 2000 nM.
In the case of `CC1CNC(C(c2ccsc2)C2CCCCC2)=N1` (stereo not drawn) [Example 6, 2-[Cyclohexyl(3-thienyl)methyl]-4-methyl-4,5dihydro-1H-imidazole], the reduces glycaemia in the test with non-diabetic Wistar rats is reported as 13%; with STZ Wistar rats, 18%; in the test with Zucker rats it was 14%. The same compound returned a lowers the triglycerides in the test on obese ob/ob mouse of 32%.
